Results: patent publication US8987192B2, “Potent and selective mediators of cholesterol efflux” (The Regents of the University of California, priority 2006, dated 2015)
Entries after “also recorded” stand apart in the source; their conditions may differ.

Assays:
ABCA1 [1] = assay: Cholesterol efflux in the absence and presence of ABCA1 (mouse macrophages and HeLa cells transfected with ABCA1 cDNA); type: cell-based; conditions: 8 hours, saturating peptide >30-fold Km
Excerpt: The large excess of polypeptide was provided to determine the extent (if any) of non-specific efflux, in the absence of ABCA1 induction.

J774 macrophages = assay: Pretreatment of macrophages, then Apo A-I-mediated cholesterol efflux; type: cell-based, mouse; conditions: 4 hour pretreatment, vs serum-free medium alone; Apo A-I 10 μg/ml
Method: To determine whether conditioning of macrophages with the polypeptide of SEQ ID NO:4 upregulates cholesterol efflux to native apolipoproteins, J774 macrophages labeled with [^3H]cholesterol were induced for the ABCA1 response using a cAMP analog (24 h). This was followed by a 4 hour treatment (no cAMP) with serum-free medium alone or medium containing the polypeptide of SEQ ID NO:4. After 4 h with no cAMP, cholesterol efflux was initiated by adding fresh medium containing Apo A-I (10 μg/ml). Polypeptide of SEQ ID NO:4 pretreatment produced a 40% increase in Apo A-I-mediated cholesterol efflux from macrophages, compared to pretreatment with serum-free medium alone (see, FIG. 6).

[2] = test system: Apolipoprotein E deficient (Apo E −/−) mice; assay: Established atherosclerosis in Apo E -/- mice on high-fat diet (Example 18); type: in vivo, mouse; conditions: 10 mg/kg IP at 2-day intervals
Method: Male Apolipoprotein E deficient (Apo E −/−) mice (six-weeks of age) were fed a high-fat diet for 26 weeks. During the last 6 weeks on the high-fat diet, the mice received intraperitoneal (IP) injections of either saline or the polypeptide of SEQ ID NO:4 (10 mg/kg) at 2-day intervals. […] The effect of the polypeptide reducing established atherosclerosis was highly significant, as judged by the lipid-content of plaques in the aortic sinus (see, FIG. 18). This was accomplished using the lipid-free polypeptide of SEQ ID NO:4 composed of all L-amino acids administered in the continued presence of the dietary insult.

[3] = test system: Apolipoprotein E knock-out mice; assay: Atherosclerosis in Apolipoprotein E knock-out mice on Western diet, pooled series (Example 19); type: in vivo, mouse
Method: The polypeptide of SEQ ID NO:4 and its Y26 analog have been evaluated with respect to ability to inhibit atherosclerosis in Apolipoprotein E knock-out mice. The mice were given Western diet for 18 weeks and then randomized to receive saline, free polypeptide or polypeptide-phospholipid complex. […] The degree of atherosclerosis was then determined in whole aorta and aortic root/sinus. Three experimental series were performed. […] The results are equal to or better than previously have been obtained with IV infusions of 40 mg/kg Apolipoprotein A-I Milano/phospholipids complex into Apo E knock-out mice (Shah et al., Circ., 97:780-5, 1998).
As noted above, data from three experimental series were pooled. Pooling of data is justified as only minor changes in the procedures were made (21 injections at 30 mg/kg over 42 and 21 days, respectively), and the diet regimens and sources of mice and polypeptide, respectively, were the same. In the first experiment S26 was substituted for Y26.

[4] = test system: Apolipoprotein E deficient (ApoE −/−) mice; assay: In vivo cholesterol efflux and Reverse Cholesterol Transport from injected macrophage foam-cells; set-up: species or system mouse; conditions: 20 mg/kg IP
Method: Apolipoprotein E deficient (ApoE −/−) mice at 6 months of age were used to evaluate the ability of the polypeptide of SEQ ID NO:4 to stimulate cholesterol efflux and Reverse Cholesterol Transport (RCT) in vivo. [^3H]cholesterol-labeled macrophage foam-cells (i.e., loaded with acetylated LDL) were injected into the intraperitoneal (IP) cavity of Apo E −/− mice in the presence and absence of the polypeptide of SEQ ID NO:4 (20 mg/kg). The polypeptide stimulated cholesterol efflux in vivo, as judged by a pronounced (2-fold) increase in the levels of macrophage derived [^3H]cholesterol appearing in plasma at 8 and 24 hour post-injection, compared to saline vehicle alone (see, FIG. 20). This was accompanied by a greater than 2-fold increase in fecal sterol secretion at 8 and 24 h. In general, the effects of the peptide were relatively long-lived persisting up to 48 h.

LDLr knockout mice = assay: Atherosclerosis in LDLr knockout mice; type: in vivo, mouse; conditions: 30 mg/kg IP every day for 6 weeks on chow after 26 weeks western-diet
Method: Beginning at 6 weeks of age, LDLr knockout mice were fed a high-fat western-diet for 26 weeks. After the dietary challenge, mice were switched to standard chow for 6 weeks. During the 6 weeks on chow diet, mice were injected IP every day with either the polypeptide of SEQ ID NO:4 or a polypeptide of SEQ ID NO:4:POPC complexes at a dose of 30 mg/kg. Control mice received IP injections with PBS vehicle alone. The presence of plaque lesions in the whole aorta was then evaluated.

ABCA1 [5] = molecular target: ABCA1 (Mus musculus, UniProt P41233); assay: ABCA1 protein stabilization in J774 macrophages (Western blot); type: cell-based; set-up: endogenous in cells; host or cells: J774 mouse macrophages; conditions: 6 hours serum-free medium, no cAMP
ABCA1 (Mus musculus, UniProt P41233), sequence (P41233 whole entry): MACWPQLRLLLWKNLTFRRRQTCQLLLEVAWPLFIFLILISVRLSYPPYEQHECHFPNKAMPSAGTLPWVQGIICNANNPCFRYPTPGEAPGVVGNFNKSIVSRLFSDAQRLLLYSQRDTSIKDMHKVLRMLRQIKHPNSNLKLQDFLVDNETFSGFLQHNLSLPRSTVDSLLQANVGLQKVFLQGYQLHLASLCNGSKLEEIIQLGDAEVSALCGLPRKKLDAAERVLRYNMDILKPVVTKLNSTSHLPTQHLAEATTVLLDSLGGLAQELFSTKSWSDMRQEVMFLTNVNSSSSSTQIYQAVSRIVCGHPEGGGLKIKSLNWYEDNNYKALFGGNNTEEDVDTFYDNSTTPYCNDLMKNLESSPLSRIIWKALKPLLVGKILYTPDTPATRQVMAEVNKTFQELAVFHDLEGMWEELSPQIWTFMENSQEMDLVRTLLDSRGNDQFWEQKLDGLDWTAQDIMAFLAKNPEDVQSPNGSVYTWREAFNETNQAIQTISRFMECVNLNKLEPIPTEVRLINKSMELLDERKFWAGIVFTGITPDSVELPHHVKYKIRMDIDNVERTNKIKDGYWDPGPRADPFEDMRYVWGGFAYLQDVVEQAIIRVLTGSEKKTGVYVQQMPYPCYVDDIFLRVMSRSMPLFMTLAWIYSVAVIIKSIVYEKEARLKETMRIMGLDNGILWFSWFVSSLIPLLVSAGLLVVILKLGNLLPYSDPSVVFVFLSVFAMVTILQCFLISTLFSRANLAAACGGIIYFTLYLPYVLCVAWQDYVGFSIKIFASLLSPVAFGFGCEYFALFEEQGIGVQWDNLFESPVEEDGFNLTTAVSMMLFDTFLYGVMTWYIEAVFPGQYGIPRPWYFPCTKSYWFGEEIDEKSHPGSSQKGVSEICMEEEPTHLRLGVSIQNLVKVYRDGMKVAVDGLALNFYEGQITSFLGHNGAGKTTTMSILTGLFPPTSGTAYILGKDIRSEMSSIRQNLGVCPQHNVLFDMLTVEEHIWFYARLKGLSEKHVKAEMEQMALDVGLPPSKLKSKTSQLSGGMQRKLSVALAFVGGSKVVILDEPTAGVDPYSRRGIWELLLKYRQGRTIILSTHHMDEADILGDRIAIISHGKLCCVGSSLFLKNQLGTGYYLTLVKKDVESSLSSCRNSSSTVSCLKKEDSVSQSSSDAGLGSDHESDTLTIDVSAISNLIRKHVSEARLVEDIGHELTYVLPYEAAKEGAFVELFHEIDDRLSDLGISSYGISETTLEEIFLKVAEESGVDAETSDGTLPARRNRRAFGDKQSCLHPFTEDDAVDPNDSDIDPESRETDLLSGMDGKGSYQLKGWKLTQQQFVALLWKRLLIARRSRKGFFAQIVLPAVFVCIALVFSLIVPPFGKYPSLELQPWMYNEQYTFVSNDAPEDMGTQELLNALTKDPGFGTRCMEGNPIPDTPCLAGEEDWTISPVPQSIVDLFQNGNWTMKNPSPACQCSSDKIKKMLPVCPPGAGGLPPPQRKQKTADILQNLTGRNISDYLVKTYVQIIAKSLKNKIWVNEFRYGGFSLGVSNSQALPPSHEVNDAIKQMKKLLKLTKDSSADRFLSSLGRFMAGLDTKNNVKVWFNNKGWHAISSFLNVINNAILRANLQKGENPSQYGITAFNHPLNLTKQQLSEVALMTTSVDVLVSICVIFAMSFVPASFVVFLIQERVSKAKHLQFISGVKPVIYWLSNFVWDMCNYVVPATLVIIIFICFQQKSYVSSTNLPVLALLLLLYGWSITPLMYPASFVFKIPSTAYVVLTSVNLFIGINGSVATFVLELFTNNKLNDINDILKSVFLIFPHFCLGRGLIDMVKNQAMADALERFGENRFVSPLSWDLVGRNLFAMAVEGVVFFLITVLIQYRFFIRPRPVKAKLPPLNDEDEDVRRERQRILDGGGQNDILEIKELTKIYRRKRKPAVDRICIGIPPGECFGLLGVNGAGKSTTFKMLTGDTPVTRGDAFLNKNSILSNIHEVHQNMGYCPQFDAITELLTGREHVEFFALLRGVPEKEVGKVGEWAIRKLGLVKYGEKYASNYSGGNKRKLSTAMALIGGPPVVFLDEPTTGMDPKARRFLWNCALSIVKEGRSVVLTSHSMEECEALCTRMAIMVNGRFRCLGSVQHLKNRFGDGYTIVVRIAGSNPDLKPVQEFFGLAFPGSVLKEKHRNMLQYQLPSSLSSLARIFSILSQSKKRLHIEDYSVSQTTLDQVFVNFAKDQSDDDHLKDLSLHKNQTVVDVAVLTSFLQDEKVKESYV
Method: In some embodiments, the stabilization of ABCA is measured by direct measurement of ABCA (e.g., ABCA protein, or nucleic acid) using a cell based assay. Cell based assays can be performed in any cells in which ABCA is expressed (e.g., J774 macrophages), including cells which have been transfected with ABCA (e.g. HeLa cells). Any cell type can be used. For example, J774 macrophages can be used to assess relative ABCA1 protein levels in the presence and absence of polypeptides of the invention. The cells are first contacted with a compound that will induce ABCA (e.g., cAMP or a cAMP analogue such as, 8-bromo-cAMP) to upregulate ABCA (e.g., ABCA1) expression, then exposed to […] polypeptides of the invention in the absence of the cAMP stimulus to evaluate whether ABCA1 protein was stabilized or degraded. Relative levels of ABCA1 protein can be assessed using any means known in the art including, e.g., immunoblot analysis of cell membranes (Oram et al., J. Biol. Chem., 278:52379-52385 (2003)) or hybridization of nucleic acid probes to ABCA mRNA.
To test whether the polypeptides of the present invention stabilize cellular ABCA1 protein concentrations, J774 mouse macrophages were treated with a cAMP analogue (24 h) to upregulate ABCA1 expression. […] ABCA1 protein in cell lysates was determined by Western blot analysis. […]

[6] = 30 mg/kg IP, 6 weeks of treatment

EVRSKLEEWFAAFREFAEEFLARLKS (ATI-5261 amphipathic alpha-helix polypeptide core sequence selectively binds HDL, high-affinity ligand for ATP-binding cassette transporter A1 (ABCA1), ABCA1-lipid cholesterol efflux, ABCA1-stablization, anti-oxidant and anti- inflammatory activity) [SEQ ID NO:4]
non-specific efflux activity in the absence of ABCA1 (ABCA1 [1]): minimal | requirement of ABCA1 for cholesterol efflux activity (ABCA1 [1]; mouse macrophages and ABCA1-transfected HeLa): required ABCA1 for efflux activity | increase in Apo A-I-mediated cholesterol efflux after pretreatment (J774 macrophages): 40% | effect on established atherosclerosis (in words) ([2]; 6 weeks): reduced aortic plaque lipid content; also recorded: significantly reduced established atherosclerosis | greater atherosclerosis in saline control mice compared to treated mice ([2]; last 6 weeks of 26 weeks high-fat diet, lipid-content of aortic sinus plaques): 38% | lipid-content of aortic sinus plaque [3, 6]: decreased the lipid-content of aortic sinus plaque | plaque lesion area over the whole aorta [3, 6]: reduced plaque lesion area over the whole aorta | antiatherosclerotic effect (whole aorta and aortic root/sinus) ([3]; 30 mg/kg IP, 21 injections, pooled data of three series): significant antiatherosclerotic effects | p versus control, FIG. 19A percent of lipid in plaque in whole aorta ([3]; pooled data): < 0.0040 | persistence of effects [4]: up to 48 h | increase in fecal sterol secretion ([4]; 8 and 24 h): greater than 2 fold | increase in macrophage derived [3H]cholesterol in plasma ([4]; 8 and 24 hour post-injection, vs saline): 2 fold | plaque lesions in the whole aorta (LDLr knockout mice): reduced plaque lesion area over the whole aorta; also recorded: the amount of plaque was reduced | ABCA1 protein in cell lysates after cAMP withdrawal (ABCA1 [5]): prevented the disappearance of ABCA1 protein
